Data: PubChem BioAssay (NCI)
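Tested at 5 concentrations; 48 h exposure; 96-well plates; endpoints linearly interpolated, else capped at highest concentration. TGI is the concentration that stops growth completely.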

Columns and labels:
Test in all cases: inhibition of tumour cell growth, NCI panel, 48 h
NCI-H226 lung = tested on: NCI-H226 lung
CCRF-CEM leukemia = tested on: CCRF-CEM leukemia
HCC-2998 colon = tested on: HCC-2998 colon
HL-60(TB) leukemia = tested on: HL-60(TB) leukemia
SN12C renal = tested on: SN12C renal
UO-31 renal = tested on: UO-31 renal
K-562 leukemia = tested on: K-562 leukemia
RPMI-8226 leukemia = tested on: RPMI-8226 leukemia
OVCAR-3 ovarian = tested on: OVCAR-3 ovarian
A498 renal = tested on: A498 renal
SK-MEL-28 melanoma = tested on: SK-MEL-28 melanoma
M14 melanoma = tested on: M14 melanoma
LXFL 529 NSCLC = tested on: LXFL 529 NSCLC
SNB-78 CNS = tested on: SNB-78 CNS
NCI-H23 lung = tested on: NCI-H23 lung
UACC-62 melanoma = tested on: UACC-62 melanoma
SNB-19 CNS = tested on: SNB-19 CNS
HT29 colon = tested on: HT29 colon
UACC-257 melanoma = tested on: UACC-257 melanoma
HCT-15 colon = tested on: HCT-15 colon
MOLT-4 leukemia = tested on: MOLT-4 leukemia
MALME-3M melanoma = tested on: MALME-3M melanoma
OVCAR-5 ovarian = tested on: OVCAR-5 ovarian
SNB-75 CNS = tested on: SNB-75 CNS
SF-295 CNS = tested on: SF-295 CNS
ACHN renal = tested on: ACHN renal
COLO 205 colon = tested on: COLO 205 colon
KM20L2 colon = tested on: KM20L2 colon
XF 498 CNS = tested on: XF 498 CNS
SW-620 colon = tested on: SW-620 colon
DMS 273 small cell lung = tested on: DMS 273 small cell lung
CAKI-1 renal = tested on: CAKI-1 renal
DLD-1 colon = tested on: DLD-1 colon
U251 CNS = tested on: U251 CNS
SK-OV-3 ovarian = tested on: SK-OV-3 ovarian
LOX IMVI melanoma = tested on: LOX IMVI melanoma
OVCAR-4 ovarian = tested on: OVCAR-4 ovarian
M19-MEL melanoma = tested on: M19-MEL melanoma
RXF-631 renal = tested on: RXF-631 renal
DMS 114 small cell lung = tested on: DMS 114 small cell lung
NCI-H522 lung = tested on: NCI-H522 lung
HOP-62 NSCLC = tested on: HOP-62 NSCLC
HOP-92 NSCLC = tested on: HOP-92 NSCLC
SR leukemia = tested on: SR leukemia
RXF 393 renal = tested on: RXF 393 renal
HCT-116 colon = tested on: HCT-116 colon
SF-268 CNS = tested on: SF-268 CNS
KM12 colon = tested on: KM12 colon
786-0 renal = tested on: 786-0 renal
NCI-H460 lung = tested on: NCI-H460 lung
OVCAR-8 ovarian = tested on: OVCAR-8 ovarian
IGROV1 ovarian = tested on: IGROV1 ovarian
TK-10 renal = tested on: TK-10 renal
HOP-18 NSCLC = tested on: HOP-18 NSCLC
A549 NSCLC = tested on: A549 NSCLC
EKVX NSCLC = tested on: EKVX NSCLC
SK-MEL-5 melanoma = tested on: SK-MEL-5 melanoma
SK-MEL-2 melanoma = tested on: SK-MEL-2 melanoma
SF-539 CNS = tested on: SF-539 CNS

O=C(Nc1cc(Cl)c(Cl)cc1Cl)C(=O)C(C(=O)c1ccccc1)C1OC(=O)c2ccccc21 (stereo not given)
TGI (NCI-H226 lung): > 100 µM
TGI (CCRF-CEM leukemia): > 100 µM
TGI (HCC-2998 colon): > 100 µM
TGI (HL-60(TB) leukemia): > 100 µM
TGI (SN12C renal): > 100 µM
TGI (UO-31 renal): > 100 µM
TGI (K-562 leukemia): > 100 µM
TGI (RPMI-8226 leukemia): > 100 µM
TGI (OVCAR-3 ovarian): > 100 µM
TGI (A498 renal): > 100 µM
TGI (SK-MEL-28 melanoma): > 100 µM
TGI (M14 melanoma): > 100 µM
TGI (LXFL 529 NSCLC): > 100 µM
TGI (SNB-78 CNS): > 100 µM
TGI (NCI-H23 lung): > 100 µM
TGI (UACC-62 melanoma): > 100 µM
TGI (SNB-19 CNS): > 100 µM
TGI (HT29 colon): > 100 µM
TGI (UACC-257 melanoma): > 100 µM
TGI (HCT-15 colon): > 100 µM
TGI (MOLT-4 leukemia): > 100 µM
TGI (MALME-3M melanoma): > 100 µM
TGI (OVCAR-5 ovarian): > 100 µM
TGI (SNB-75 CNS): > 100 µM
TGI (SF-295 CNS): > 100 µM
TGI (ACHN renal): > 100 µM
TGI (COLO 205 colon): > 100 µM
TGI (KM20L2 colon): > 100 µM
TGI (XF 498 CNS): > 100 µM
TGI (SW-620 colon): > 100 µM
TGI (DMS 273 small cell lung): > 100 µM
TGI (CAKI-1 renal): > 100 µM
TGI (DLD-1 colon): > 100 µM
TGI (U251 CNS): > 100 µM
TGI (SK-OV-3 ovarian): > 100 µM
TGI (LOX IMVI melanoma): > 100 µM
TGI (OVCAR-4 ovarian): > 100 µM
TGI (M19-MEL melanoma): > 100 µM
TGI (RXF-631 renal): > 100 µM
TGI (DMS 114 small cell lung): > 100 µM
TGI (NCI-H522 lung): > 100 µM
TGI (HOP-62 NSCLC): > 100 µM
TGI (HOP-92 NSCLC): > 100 µM
TGI (SR leukemia): > 100 µM
TGI (RXF 393 renal): > 100 µM
TGI (HCT-116 colon): > 100 µM
TGI (SF-268 CNS): > 100 µM
TGI (KM12 colon): > 100 µM
TGI (786-0 renal): > 100 µM
TGI (NCI-H460 lung): > 100 µM
TGI (OVCAR-8 ovarian): > 100 µM
TGI (IGROV1 ovarian): > 100 µM
TGI (TK-10 renal): > 100 µM
TGI (HOP-18 NSCLC): > 100 µM
TGI (A549 NSCLC): > 100 µM
TGI (EKVX NSCLC): > 100 µM

CCCCCCC1=NOC(C(c2cc[nH]c2)N(C)[C@H](C(=O)OC)C(C)C)C1 (stereo not given in full)
TGI (NCI-H226 lung): > 100 µM
TGI (CCRF-CEM leukemia): 53.9 µM
TGI (HCC-2998 colon): > 100 µM
TGI (HL-60(TB) leukemia): 63.7 µM
TGI (SN12C renal): 51.6 µM
TGI (UO-31 renal): > 100 µM
TGI (SK-MEL-5 melanoma): > 100 µM
TGI (K-562 leukemia): > 100 µM
TGI (OVCAR-3 ovarian): 77.6 µM
TGI (A498 renal): > 100 µM
TGI (SK-MEL-28 melanoma): > 100 µM
TGI (M14 melanoma): > 100 µM
TGI (LXFL 529 NSCLC): > 100 µM
TGI (SK-MEL-2 melanoma): 65.9 µM
TGI (SNB-78 CNS): 87.1 µM
TGI (NCI-H23 lung): > 100 µM
TGI (UACC-62 melanoma): > 100 µM
TGI (SNB-19 CNS): > 100 µM
TGI (HT29 colon): > 100 µM
TGI (UACC-257 melanoma): > 100 µM
TGI (MOLT-4 leukemia): 62.7 µM
TGI (MALME-3M melanoma): > 100 µM
TGI (OVCAR-5 ovarian): > 100 µM
TGI (SNB-75 CNS): > 100 µM
TGI (SF-295 CNS): > 100 µM
TGI (ACHN renal): > 100 µM
TGI (COLO 205 colon): 32.2 µM
TGI (KM20L2 colon): > 100 µM
TGI (XF 498 CNS): > 100 µM
TGI (SW-620 colon): 68 µM
TGI (DMS 273 small cell lung): > 100 µM
TGI (CAKI-1 renal): > 100 µM
TGI (DLD-1 colon): > 100 µM
TGI (U251 CNS): > 100 µM
TGI (SF-539 CNS): > 100 µM
TGI (SK-OV-3 ovarian): > 100 µM
TGI (LOX IMVI melanoma): 74.6 µM
TGI (OVCAR-4 ovarian): > 100 µM
TGI (M19-MEL melanoma): > 100 µM
TGI (RXF-631 renal): > 100 µM
TGI (DMS 114 small cell lung): > 100 µM
TGI (NCI-H522 lung): 33.9 µM
TGI (HOP-62 NSCLC): > 100 µM
TGI (HOP-92 NSCLC): > 100 µM
TGI (SR leukemia): 91.6 µM
TGI (RXF 393 renal): > 100 µM
TGI (HCT-116 colon): > 100 µM
TGI (SF-268 CNS): > 100 µM
TGI (KM12 colon): 63.6 µM
TGI (786-0 renal): > 100 µM
TGI (OVCAR-8 ovarian): > 100 µM
TGI (IGROV1 ovarian): > 100 µM
TGI (TK-10 renal): > 100 µM
TGI (HOP-18 NSCLC): > 100 µM
TGI (A549 NSCLC): > 100 µM
TGI (EKVX NSCLC): > 100 µM

CCSC1=CC(Cc2ccc(OC)cc2)N(C(=O)OC)C1 (stereo not given)
TGI (NCI-H226 lung): > 100 µM
TGI (CCRF-CEM leukemia): > 100 µM
TGI (HCC-2998 colon): > 100 µM
TGI (HL-60(TB) leukemia): 60.1 µM
TGI (SN12C renal): > 100 µM
TGI (UO-31 renal): > 100 µM
TGI (SK-MEL-5 melanoma): > 100 µM
TGI (K-562 leukemia): > 100 µM
TGI (OVCAR-3 ovarian): > 100 µM
TGI (A498 renal): > 100 µM
TGI (SK-MEL-28 melanoma): > 100 µM
TGI (M14 melanoma): > 100 µM
TGI (LXFL 529 NSCLC): > 100 µM
TGI (SK-MEL-2 melanoma): > 100 µM
TGI (SNB-78 CNS): > 100 µM
TGI (NCI-H23 lung): > 100 µM
TGI (UACC-62 melanoma): > 100 µM
TGI (SNB-19 CNS): > 100 µM
TGI (HT29 colon): > 100 µM
TGI (UACC-257 melanoma): > 100 µM
TGI (HCT-15 colon): > 100 µM
TGI (MOLT-4 leukemia): > 100 µM
TGI (MALME-3M melanoma): > 100 µM
TGI (OVCAR-5 ovarian): > 100 µM
TGI (SNB-75 CNS): > 100 µM
TGI (SF-295 CNS): > 100 µM
TGI (ACHN renal): > 100 µM
TGI (COLO 205 colon): > 100 µM
TGI (KM20L2 colon): > 100 µM
TGI (XF 498 CNS): > 100 µM
TGI (SW-620 colon): > 100 µM
TGI (DMS 273 small cell lung): > 100 µM
TGI (CAKI-1 renal): > 100 µM
TGI (DLD-1 colon): > 100 µM
TGI (U251 CNS): > 100 µM
TGI (SF-539 CNS): > 100 µM
TGI (SK-OV-3 ovarian): > 100 µM
TGI (LOX IMVI melanoma): > 100 µM
TGI (OVCAR-4 ovarian): > 100 µM
TGI (M19-MEL melanoma): > 100 µM
TGI (RXF-631 renal): > 100 µM
TGI (DMS 114 small cell lung): 73.7 µM
TGI (NCI-H522 lung): > 100 µM
TGI (HOP-62 NSCLC): > 100 µM
TGI (HOP-92 NSCLC): > 100 µM
TGI (SR leukemia): > 100 µM
TGI (RXF 393 renal): > 100 µM
TGI (HCT-116 colon): > 100 µM
TGI (SF-268 CNS): > 100 µM
TGI (KM12 colon): > 100 µM
TGI (786-0 renal): > 100 µM
TGI (NCI-H460 lung): > 100 µM
TGI (OVCAR-8 ovarian): > 100 µM
TGI (IGROV1 ovarian): > 100 µM
TGI (TK-10 renal): > 100 µM
TGI (HOP-18 NSCLC): > 100 µM
TGI (A549 NSCLC): > 100 µM
TGI (EKVX NSCLC): > 100 µM
